From US7226944B2, “Taxanes having a C7 carbonate substituent” (FSU Research Foundation, Inc., priority 2000, dated 2007)

system: HCT116; test: In vitro cytotoxicity measured by the cell colony formation assay; format: cell-based; settings: HCT116 cells; drug concentration producing 50% inhibition of colony formation; 72 h with drug at 37° C., colonies counted after 7 days; read-out: IN VITRO ID 50 (nm) HCT116
Method: Four hundred cells (HCT116) were plated in 60 mm Petri dishes containing 2.7 mL of medium (modified McCoy's 5a medium containing 10% fetal bovine serum and 100 units/mL penicillin and 100 µg/mL streptomycin). The cells were incubated in a CO2 incubator at 37° C. for 5 h for attachment to the bottom of Petri dishes. The compounds identified in Example 2 were made up fresh in medium at ten times the final concentration, and then 0.3 mL of this stock solution was added to the 2.7 mL of medium in the dish. The cells were then incubated with drugs for 72 h at 37° C. At the end of incubation the drug-containing media were decanted, the dishes were rinsed with 4 mL of Hank's Balance Salt Solution (HBSS), 5 mL of fresh medium was added, and the dishes were returned to the incubator for colony formation. The cell colonies were counted using a colony counter after incubation for 7 days.

Question: Which IC50 does the source give for CCOC(=O)O[C@H]1C[C@H]2OC[C@@]2(OC(C)=O)C2[C@H](OC(=O)c3ccccc3)[C@]3(O)C[C@H](OC(=O)[C@H](O)[C@@H](NC(=O)OCC(C)C)C4CC4)C(C)=C([C@@H](O)C(=O)[C@@]21C)C3(C)C (stereo partly shown) [Compound 5225] here?
Answer: Its IC50 is less than 10 nM.

Question: Which IC50 does the source give for COC(=O)O[C@H]1C[C@H]2OC[C@@]2(OC(C)=O)C2[C@H](OC(=O)c3ccccc3)[C@]3(O)C[C@H](OC(=O)[C@H](O)[C@@H](NC(=O)OC(C)(C)C)c4ccsc4)C(C)=C([C@@H](O)C(=O)[C@@]21C)C3(C)C (stereo partly shown) [Compound 4474] here?
Answer: The IC50 was less than 1 nM.

Question: With COC(=O)O[C@H]1C[C@H]2OC[C@@]2(OC(C)=O)C2[C@H](OC(=O)c3ccccc3)[C@]3(O)C[C@H](OC(=O)[C@H](O)[C@@H](NC(=O)OCC(C)C)c4ccoc4)C(C)=C([C@@H](O)C(=O)[C@@]21C)C3(C)C (stereo partly shown) [Compound 4584] as the compound, how does the IC50 read?
Answer: The IC50 was less than 10 nM.

Question: Which IC50 does the source give for C/C=C/C(=O)N[C@@H](c1ccco1)[C@@H](O)C(=O)O[C@H]1C[C@@]2(O)[C@@H](OC(=O)c3ccccc3)C3[C@](C)(C(=O)[C@H](O)C(=C1C)C2(C)C)[C@@H](OC(=O)OC)C[C@H]1OC[C@@]31OC(C)=O (stereo partly shown) [Compound 4744] here?
Answer: The IC50 was less than 1 nM.

Question: For COC(=O)O[C@H]1C[C@H]2OC[C@@]2(OC(C)=O)C2[C@H](OC(=O)c3ccccc3)[C@]3(O)C[C@H](OC(=O)[C@H](O)[C@@H](NC(=O)OC(C)(C)C)C4CC4)C(C)=C([C@@H](O)C(=O)[C@@]21C)C3(C)C (stereo partly shown) [Compound 4566], which IC50 is on record?
Answer: Its IC50 is less than 1 nM.

Question: Which IC50 does the source give for COC(=O)O[C@H]1C[C@H]2OC[C@@]2(OC(C)=O)C2[C@H](OC(=O)c3ccccc3)[C@]3(O)C[C@H](OC(=O)[C@H](O)[C@@H](NC(=O)OC(C)(C)C)c4ccoc4)C(C)=C([C@@H](O)C(=O)[C@@]21C)C3(C)C (stereo partly shown) [Compound 4434] here?
Answer: Its IC50 is less than 1 nM.

Question: For CCOC(=O)O[C@H]1C[C@H]2OC[C@@]2(OC(C)=O)C2[C@H](OC(=O)c3ccccc3)[C@]3(O)C[C@H](OC(=O)[C@H](O)[C@@H](NC(=O)C=C(C)C)c4cccs4)C(C)=C([C@@H](O)C(=O)[C@@]21C)C3(C)C (stereo partly shown) [Compound 4164], which IC50 is on record?
Answer: The IC50 was less than 1 nM.

Question: With COC(=O)O[C@H]1C[C@H]2OC[C@@]2(OC(C)=O)C2[C@H](OC(=O)c3ccccc3)[C@]3(O)C[C@H](OC(=O)[C@H](O)[C@@H](NC(=O)OC(C)C)c4cccs4)C(C)=C([C@@H](O)C(=O)[C@@]21C)C3(C)C (stereo partly shown) [Compound 4144] as the compound, how does the IC50 read?
Answer: The IC50 was less than 1 nM.

Question: With C/C=C/C(=O)N[C@@H](c1cccs1)[C@@H](O)C(=O)O[C@H]1C[C@@]2(O)[C@@H](OC(=O)c3ccccc3)C3[C@](C)(C(=O)[C@H](O)C(=C1C)C2(C)C)[C@@H](OC(=O)OC)C[C@H]1OC[C@@]31OC(C)=O (stereo partly shown) [Compound 4766] as the compound, how does the IC50 read?
Answer: Its IC50 is less than 1 nM.

Question: For CCOC(=O)O[C@H]1C[C@H]2OC[C@@]2(OC(C)=O)C2[C@H](OC(=O)c3ccccc3)[C@]3(O)C[C@H](OC(=O)[C@H](O)[C@@H](NC(=O)OCC(C)C)c4cccs4)C(C)=C([C@@H](O)C(=O)[C@@]21C)C3(C)C (stereo partly shown) [Compound 4363], which IC50 is on record?
Answer: Its IC50 is less than 10 nM.

Question: Which IC50 does the source give for C/C=C/C(=O)N[C@@H](c1ccoc1)[C@@H](O)C(=O)O[C@H]1C[C@@]2(O)[C@@H](OC(=O)c3ccccc3)C3[C@](C)(C(=O)[C@H](O)C(=C1C)C2(C)C)[C@@H](OC(=O)OCC)C[C@H]1OC[C@@]31OC(C)=O (stereo partly shown) [Compound 4904] here?
Answer: The IC50 was less than 10 nM.

Question: For CCOC(=O)O[C@H]1C[C@H]2OC[C@@]2(OC(C)=O)C2[C@H](OC(=O)c3ccccc3)[C@]3(O)C[C@H](OC(=O)[C@H](O)[C@@H](NC(=O)OCC(C)C)c4ccoc4)C(C)=C([C@@H](O)C(=O)[C@@]21C)C3(C)C (stereo partly shown) [Compound 4624], which IC50 is on record?
Answer: Its IC50 is less than 10 nM.

Question: For C/C=C/C(=O)N[C@@H](c1cccs1)[C@@H](O)C(=O)O[C@H]1C[C@@]2(O)[C@@H](OC(=O)c3ccccc3)C3[C@](C)(C(=O)[C@H](O)C(=C1C)C2(C)C)[C@@H](OC(=O)OCc1ccccc1)C[C@H]1OC[C@@]31OC(C)=O (stereo partly shown) [Compound 6566], which IC50 is on record?
Answer: The IC50 was less than 10 nM.

Question: Which IC50 does the source give for CCOC(=O)O[C@H]1C[C@H]2OC[C@@]2(OC(C)=O)C2[C@H](OC(=O)c3ccccc3)[C@]3(O)C[C@H](OC(=O)[C@H](O)[C@@H](NC(=O)OC(C)(C)C)c4ccsc4)C(C)=C([C@@H](O)C(=O)[C@@]21C)C3(C)C (stereo partly shown) [Compound 4500] here?
Answer: Its IC50 is less than 1 nM.

same assay, conditions: Homo sapiens, HCT-116; read-out: IN VITRO ID 50 (nm) HCT116

Question: Which IC50 does the source give for COC(=O)O[C@H]1C[C@H]2OC[C@@]2(OC(C)=O)C2[C@H](OC(=O)c3ccccc3)[C@]3(O)C[C@H](OC(=O)[C@H](O)[C@@H](NC(=O)OC(C)(C)C)c4cccs4)C(C)=C([C@@H](O)C(=O)[C@@]21C)C3(C)C (stereo partly shown) [Compound 4262, 3′-Desphenyl-3′-(2-thienyl)-7-methoxycarbonyl taxotere] here?
Answer: Its IC50 is less than 1 nM.

system: not given; test: not given; settings: not given

Question: With COC(=O)O[C@H]1C[C@H]2OC[C@@]2(OC(C)=O)C2[C@H](OC(=O)c3ccccc3)[C@]3(O)C[C@H](OC(=O)[C@H](O)[C@@H](NC(=O)OC(C)(C)C)c4cccs4)C(C)=C([C@@H](O)C(=O)[C@@]21C)C3(C)C (stereo partly shown) [Compound 4262, 3′-Desphenyl-3′-(2-thienyl)-7-methoxycarbonyl taxotere] as the compound, how does the melting point read?
Answer: Its melting point is 142.5 to 143 °C.
